Measurements from patent publication US20130184272A1, “DIABETES THERAPEUTIC AGENT” (TAKEDA PHARMACEUTICAL COMPANY LIMITED, priority 2010, published 2013).
Values joined by “and” are separate entries in the source; they are usually repeats but may differ in a detail not shown here. Equal entries are not always repeated. Marks after values point to notes of the source that are not given here.

How the values were obtained:
C2C12 cells = assay: Action on muscle cell differentiation suppressed by TNF-α (creatine kinase activity); type: cell-based, Mouse; conditions: for creatine kinase activity (mIU/μg): TNF-a 30 ng/mL, 3 days
Experimental: • (1) In the same manner as in Example 1, C2C12 cells were cultured in a growth medium to not less than 90% confluence. • (2) The medium was exchanged with a differentiation medium, the compound of Reference Example 1 together with TNF-α were added, and the cells were cultured for 3 days. • (3) The cells were washed with PBS, 0.5% NP-40 solution was added, and the cells were lysed by freeze-thawing. The cell extract was centrifuged and the creatine kinase activity in the supernatant was measured as an index of muscle differentiation. The creatine kinase activity was measured using CPKII Test Wako (Wako Pure Chemical Industries, Ltd.) according to the manual of the kit.
The data in Table 9 show mean±standard deviation at n=3 (n is the number of samples).

Female KKA^y mice = assay: Improvement of insulin resistance in KKA^y mouse (plasma glucose AUC after insulin); type: in vivo; conditions: 4 weeks, insulin 0.5 U/kg i.p.
Experimental: Female KKA^y mice (12-week-old, CLEA Japan, Inc.) were bred while allowing free ingestion of both feed and water. The mice were bred for acclimation with powder CE-2 (CLEA Japan, Inc.) from 2 weeks before administration of the compound. The body weight and plasma markers were measured and, at 14 weeks of age, they were divided into 4 groups (6 per group) such that the measured values were uniform. The compound of Reference Example 1 was administered for 4 weeks in a mixed feed (0.01-0.09 mg/kg/day). After fasting overnight, insulin was intraperitoneally administered at 0.5 U/kg and, after 30, 60 and 120 min, blood samples were collected.

C3H10T1/2 cells = assay: Adipocyte differentiation suppressive action; type: cell-based; conditions: for cell number (number of nucleus/visual field) / lipid droplet area (lipid droplet stained area/cell number): DM, 9 days
Experimental: C3H10T1/2 cells (Dainippon Pharmaceutical Co., Ltd.) were cultured in a growth medium until confluence. 1 μM dexamethasone, 0.5 mM 3-isobutyl-1-methylxanthine and 5 μg/mL insulin were added to the medium, and the cells were cultured for 3 days. The medium was exchanged with a growth medium added with 4 μg/mL insulin and the cells were cultured for 3 more days and cultured in a growth medium for 3 days. When the compound was added, it was added for 9 days after reaching confluence and the cells were cultured. The cells were fixed with 3.7% formalin, lipid droplet was stained with 100 nM BODIPY 493/503 (Molecular Probes), nucleus was stained with 2 μM Hoechst33258 (Acros Organics), and analyzed by IN Cell analyzer (GE Healthcare). The data of Table 15 show mean±standard deviation at n=4 (n is the number of samples).

C/EBPα = assay: Adipocyte-related gene expression level: C/EBPα; type: cell-based
Experimental: (§1) In the same manner as in Example 10, the cells were cultured, and total RNA was extracted using Rneasy96 kit (Qiagen) from the cell immediately before and 6 days after addition of […] of the compound of Reference Example 1. cDNA was prepared from the total RNA using TaqMan reverse transcription reagent (Applied Biosystems), quantitative PCR was performed by ABI PRISM7000 or 7000 using TaqMan Universal PCR master mix (Applied Biosystems) and commercially available primers, and the expression level of each gene was determined. The commercially available primers used were as follows. • C/EBPα (Mm00514283_s1, TaqMan Gene Expression Assays, Applied Biosystems) • C/EBPβ (Mm00843434_s1, TaqMan Gene Expression Assays, Applied Biosystems) • KLF15 (Mm00517792_m1, TaqMan Gene Expression Assays, Applied Biosystems) • PPARγ (Mm00440945_m1, TaqMan Gene Expression Assays, Applied Biosystems)
(§2) The expression level was amended by the amount of 36B4 (Takeda Pharmaceutical Company Limited) in the same manner as in Example 3, and the relative values to the value immediately before addition of each gene compound as 1 are shown in Table 16. The data in Table 16 show mean±standard deviation at n=3-4 (n is the number of samples).

KLF15 = assay: Adipocyte-related gene expression level: KLF15; type: cell-based
Experimental: as §1, §2

[1] = system: Normal male C57BL/6J mice; assay: Data of normal mouse; type: in vivo
Experimental: Normal male C57BL/6J mice (CLEA Japan, Inc.) were bred allowing free ingestion of both feed and water. The mice were bred for acclimation for 1 week from 16-week-old. The body weight was measured, the mice were divided into 2 groups (5 per group) to be uniform, and the compound of Reference Example 1 (0.03 mg/kg) was orally administered to one group for 2 weeks. On the last day, the body weight, and plasma levels of total cholesterol, glucose, lactic acid, GOT, GPT and neutral lipid were measured. The data of Table 19 show mean±standard deviation at n=5 (n is the number of samples).

[2] = 10 μm [sic] of compound, 6 days after addition, value immediately before addition = 1
[3] = normal mice, 0.03 mg/kg oral, 2 weeks

Cc1ncccc1Oc1sc(C(N)=O)c2c1-c1c(cnn1C)CC2 [Ref. Ex. 1, 1-methyl-8-[(2-methylpyridin-3-yl)oxy]-4,5-dihydro-1H-thieno[3,4-g]indazole-6-carboxamide]
creatine kinase activity decreased by TNF-α (in words) (C2C12 cells): recovered
creatine kinase activity (mIU/μg) (C2C12 cells; compound 0 nM as printed): 0.12 mIU/μg and 0.15 mIU/μg
creatine kinase activity (mIU/μg) (C2C12 cells; compound 1 nM): 0.25 mIU/μg
creatine kinase activity (mIU/μg) (C2C12 cells; compound 3 nM): 0.39 mIU/μg
glucose AUC0-120 min (Female KKA^y mice; 0.01 mg/kg/day in mixed feed): 241.0 mg·h/dL
glucose AUC0-120 min (mg h/dL) (Female KKA^y mice; 0.03 mg/kg/day in mixed feed): 184.7* mg h/dL
glucose AUC0-120 min (mg h/dL) (Female KKA^y mice; 0.09 mg/kg/day in mixed feed): 182.5* mg h/dL
cell number (number of nucleus/visual field) (C3H10T1/2 cells; compound 0.1 nM): 303 ± 28
lipid droplet area (lipid droplet stained area/cell number) (C3H10T1/2 cells; compound 0.1 nM): 9625
cell number (number of nucleus/visual field) (C3H10T1/2 cells; compound 1 nM): 295 ± 15
lipid droplet area (lipid droplet stained area/cell number) (C3H10T1/2 cells; compound 1 nM): 5703
cell number (number of nucleus/visual field) (C3H10T1/2 cells; compound 10 nM): 318 ± 9
lipid droplet area (lipid droplet stained area/cell number) (C3H10T1/2 cells; compound 10 nM): 2010
cell number (in words) (C3H10T1/2 cells; adipocyte differentiation): without affecting
intracellular lipid accumulation (in words) (C3H10T1/2 cells; adipocyte differentiation): decreased
C/EBPα expression level (amended by 36B4) (C/EBPα; [2]): 1.6 ± 0.5
expression level of C/EBPα (in words) (C/EBPα; C3H10T1/2 cell): decreased
KLF15 expression level (amended by 36B4) (KLF15; [2]): 1.4 ± 0.4
expression level of KLF15 (in words) (KLF15; C3H10T1/2 cell): decreased
normal body weight and plasma markers (in words) ([1]; normal C57BL/6J mice): does not affect
body weight (g) on last day [1, 3]: 28.03 ± 0.84 g
plasma GOT (U/L) [1, 3]: 63.4 ± 31.1 U/L
plasma GPT (U/L) [1, 3]: 29.4 ± 3.9 U/L
plasma glucose [1, 3]: 155.5 ± 11.9 mg/dL
plasma lactic acid [1, 3]: 49.3 ± 16.5 mg/dL
plasma neutral fats [1, 3]: 78.0 ± 31.0 mg/dL
plasma total cholesterol [1, 3]: 81.1 ± 10.2 mg/dL
total amount of ingestion (g/2 weeks) [1, 3]: 55.6 ± 2.5 g/2 weeks
